Results as given in patent publication US4122181A, “Analgesic (3-micotinamido-N(quinolyl) anthranilates and method of use” (Pierre Fabre S.A., priority 1975, dated 1978).
≈ marks a conversion by molar mass, not a printed value. Read-outs that look alike come from different tables or passages of the source.

Legend:
[1] = Acute toxicity (LD50, method of MILLER and TAINTER) in the conventional mouse; settings: in vivo, mouse about 20 g
Procedure: The toxicology study was carried out on the conventional mouse weighing about 20 g.
The substances were administered orally and intraperitoneally. The LD50 is calculated by the method of MILLER and TAINTER (Proc. Soc. Exper. Biol. Med. 1944, 57, 261).

[2] = tested on: phenyl benzoquinone; assay: Analgesic activity by the technique of SIEGMUND et al. (phenyl benzoquinone); type: in vivo; settings: read-out: ED50, analgesic activity
Procedure: The compounds are administered orally 30 minutes before the injection of the phenyl benzoquinone solution.

[3] = tested on: rats; type: in vivo, rat
Procedure: The ulceration index was determined in rats subjected to constraint for 7 hours.
The vehicle is a 4% aqueous solution of Tween 80 (TM - surface active agent).
The ulcerogenic index is calculated in accordance with the criteria established by […] et al. (Arch. Int. Pharmacodyn; 1971, 190, 6-13).

[4] = tested on: rabbit tooth; assay: Analgesic activity: electrical stimulation of rabbit tooth (CHEYMOL); type: in vivo; settings: for time of maximum activity after administration: 100 mg/kg, administered orally; for analgesic activity compared with the control product (glaphenine): electrical stimulation of rabbit tooth
From the text: (b) Electrical stimulation of rabbit tooth in accordance with CHEYMOL - Therapie 1959, XIV, p. 350 to 360.

[5] = Solubility characteristics
[6] = tested on: mice; assay: Falling of mice placed on a turning horizontal bar (central properties); type: in vivo, mouse; settings: bar of 4 cm diameter turning at 8 rpm
[7] = tested on: mice; assay: Potentialization of anesthesia induced by chloral hydrate in mice; type: in vivo, mouse; settings: 350 mg/kg chloral hydrate i.p., compound 100 mg/kg orally 30 minutes in advance
[8] = ip, intraperitoneal, read-out: LD50, intraperitoneally
[9] = oral, 30 minutes before injection of phenyl benzoquinone solution
[10] = rats, oral, dose 100 (unit not given), N = 10, constraint for 7 hours

Work on O=C(OCC(O)CO)c1ccccc1Nc1ccnc2cc(Cl)ccc12 (stereo not shown) [Glaphenine, reference compound] yielded an LD50 [1, 8] of about 500 mg/kg, an LD50 ([1]; oral, read-out: LD50, orally) of 1500 ± 500 mg/kg and an ED50 [2, 9] of 36 mg/kg. For the same compound, the Ulceration index [3, 10] was 8.8.
In the case of CC(=O)Oc1ccccc1C(=O)O [Aspirin, reference compound], the ED50 ([2]; po) is reported as 100 mg/kg and the Ulceration index ([3]; rat, in vivo, po) is reported as 13.1.
Compound O=C(NCCOC(=O)c1ccccc1Nc1ccnc2cc(C(F)(F)F)ccc12)c1cccnc1 [F 1636, β-nicotinamido-ethyl-N(7-trifluoromethyl-4-quinolyl)-anthranilate] has an LD50 [1, 8] of over 1000 mg/kg, an LD50 ([1]; oral, read-out: LD50, orally) of 3200 ± 500 mg/kg and an ED50 [2, 9] of 15 mg/kg. For the same compound, the “time of maximum activity after administration” value [4] was “about 60 minutes”, the “analgesic activity compared with the control product (glaphenine)” value [4] was “better activity than the control product (glaphenine)” and the Ulceration index [3, 10] was 4.2. For the same compound, the “solubility in dimethyl formamide” value ([5]; dimethyl formamide) was 8%.
With O=C(NCCOC(=O)c1ccccc1Nc1ccnc2cc(Cl)ccc12)c1cccnc1 [F 1531, β-nicotinamido-ethyl-N(7-chloro 4-quinolyl)-anthranilate] the LD50 [1, 8] was over 500 mg/kg, the LD50 ([1]; oral, read-out: LD50, orally) was 2800 ± 500 mg/kg and the ED50 [2, 9] was 28 mg/kg. For the same compound, the “time of maximum activity after administration” value [4] was “about 60 minutes”, the “analgesic activity compared with the control product (glaphenine)” value [4] was “better activity than the control product (glaphenine)” and the Ulceration index [3, 10] was 5.3. For the same compound, the “doses resulting in the falling of mice from turning horizontal bar” value [6] was “identical with the lethal doses”, the “effect on anesthesia induced by chloral hydrate” value [7] was “neither potentialization nor decrease in the anesthesia” and the solubility ([5]; 1 n hcl) was 200 mg/mL (≈ 448 mM).
For Nc1ccccc1C(=O)OCCNC(=O)c1cccnc1 [β-nicotinamido-ethyl anthranilate], the solubility in alcohol ([5]; alcohol) was 2.5%, the “solubility in dimethyl acetamide” value ([5]; dimethyl acetamide) was 100% and the solubility in water ([5]; water) was “insoluble”.
